Patent publication US8329645B2, “Polymyxin derivatives and uses thereof” (priority 2008, dated 2012)
≈ marks a conversion by molar mass, not a printed value. Where a SMILES comes first, the peptide text is derived from it. Bridges are numbered along the chain shown (N, C = ends). [ ]: non-standard residue; d: D form. The star is where a group is joined. Decanoyl = CCCCCCCCCC(=O)*; Octanoyl = CCCCCCCC(=O)*; Dab = NCC[C@H](N)C(=O)O

Experiments:
K. oxytoca ATCC13182 = assay: Growth inhibition around wells on LB agar plates; format: cell-based, Klebsiella oxytoca; conditions: 4 μg
Procedure: From an overnight-grown culture of IH3080 on LB agar, a suspension of approx. 10^8 cells/ml was prepared in 0.9% NaCl. Aliquots of this suspension were then pipetted on the agar plates and the plates were gently shaken to spread the suspension evenly on the entire surface of the plate. Thereafter, the unabsorbed part of the suspension was removed by using a Pasteur pipette. After the surface had dried, small wells (diameter, 2 mm) were drilled on the plates (five wells per plate) by using a sterile sharp-edged narrow metal tube, single-use pipette tip, and vacuum suction. An alternative method used a swab to spread the inoculum. Samples (4 μl and 10 μl) of the peptide solution in 0.9% NaCl (at concentrations of 1 μg/ml and 0.1 μg/ml) were then pipetted to the wells and the sample fluids were allowed to absorb. Controls included 0.9% NaCl solution without the compound to be tested. The plates were then incubated for 18 h at 37° C. whereafter the diameters of growth inhibition zones around each well were measured; the diameter of the well itself was not reduced. Finally, the diameters were converted to surface areas of growth inhibition (in square mm).
The susceptibility of eleven Gram-negative bacterial strains (nine different species) to NAB734 and polymyxin B was compared by using the susceptibility determination method described in Example 2. The strains included those belonging to the species of Serratia marcescens and Proteus mirabilis, both species generally known to be resistant to polymyxin. Furthermore, the susceptibility determination was also performed by using the Gram-positive bacterium, Staphylococcus aureus, also generally known to be polymyxin-resistant. Ten of the strains originated from ATCC (American Type Culture Collection, Manassas, Va., U.S.A.), and one from CCUG (Culture Collection of University of Gothenburg, Sweden). The source of E. coli IH3080 has been described in Example 2. Polymyxin B sulfate was from Sigma-Aldrich (St. Louis, Mo., USA).

E. cloacae ATCC23355 = assay: E-test MIC with or without NAB7061 (4 μg/ml), Mueller-Hinton agar; format: cell-based, Enterobacter cloacae
How it was run: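 Testing used commercial E-strips as directed by their maker. The minimum inhibitory concentration was determined from each strip.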

E. coli CCUG 41421 = test system: E. coli CCUG 41421
Procedure: Polymyxin B sulfate (Sigma-Aldrich, St. Louis, Mo., USA) was used as a control. […] The bacterial test strains originated from ATCC (10 strains), CCUG (11 strains), and NCTC (3 strains). Fourteen (14) strains (the F-strains) were purchased from Mobidiag Ltd., Helsinki, Finland.
The inocula were prepared by adjusting the bacterial suspensions to a density equivalent to OD546 nm˜0.3 (˜10^8 CFU/ml˜0.5 McFarland) the yeast suspension to a density equivalent to OD546 nm˜0.75 (˜2×10^7 CFU/ml)._The suspensions were diluted to 10^7 CFU/ml. The plates were inoculated by using a Denley Multipoint Inoculator, 1 μl per spot corresponding to approx. 10^4 CFU/spot. Plates were incubated for 16-20 hours at 35° C.

E. coli IH3080 = assay: Experimental E. coli peritonitis model in mice, NAB739 (Example 18); format: in vivo
Procedure: A suspension of E. coli IH3080 (K1:O18) in saline (0.9% NaCl) was prepared from an overnight culture on a blood agar plate (Statens Serum Institut, Copenhagen, Denmark). All mice (female NMR1 from Harlan Scandinavia, Allerød, Denmark; weight, 25-30 g) were inoculated intraperitoneally with 0.5 ml of the suspension containing 0.96×10^6 CFU per ml in the lateral lower quadrant of the abdomen. At 1 h, the CFU count was determined from three mice and the remaining mice (four mice per group) were treated with a subcutaneous injection of 0.2 ml of erythromycin solution in saline (corresponding to 5 mg/kg body weight) or NAB7061 solution in saline (corresponding to 5 mg/kg body weight), or both erythromycin and NAB7061 (corresponding to 5 mg/kg body weight of both drugs; given at two separate sites). Control group received two 0.2 ml injections of saline. At 4.5 h postinfection, all mice were anaesthetized with CO2 and sacrificed. Sterile saline (2 ml) was injected intraperitoneally and the abdomen was gently massaged before it was opened and the fluid sampled. Appropriate dilutions of the fluid were plated on blood agar plates, the plates were incubated overnight, and the colonies were counted.
The experiment was performed by using the methodology described in Example 12.
The mice were inoculated intraperitoneally with 0.5 ml of the E. coli IH3080 suspension containing 1×10^6 CFU per ml. The treatment groups (7 animals per group) were the following: A, control animals receiving saline; B, animals receiving the dose of 1 mg/kg of NAB739 subcutanously at 1 h and at 3 h postinfection; C, animals receiving the dose of 2 mg/kg of NAB739 subcutanously at 1 h and at 3 h postinfection; D, animals receiving the dose of 4 mg/kg of NAB739 subcutanously at 1 h and at 3 h postinfection; E, animals receiving the dose of 2 mg/kg of the control compound, polymyxin B sulfate (Sigma-Aldrich, P0972) subcutanously at 1 h and at 3 h postinfection.

For Polymyxin B [reference compound], the “growth inhibition around a well” value (K. oxytoca ATCC13182) was 79 square millimeters and the “Sensitization factor to antibiotic (MIC without / with 4 μg/ml of NAB 7061)” value (E. cloacae ATCC23355) was 4.
`CCCCCCCCCC(=O)N[C@H](C(=O)N[C@H](CO)C(=O)N[C@H]1CCNC(=O)[C@H]([C@@H](C)O)NC(=O)[C@H](CCN)NC(=O)[C@H](CCN)NC(=O)[C@H](CC(C)C)NC(=O)[C@@H](Cc2ccccc2)NC(=O)[C@H](CCN)NC1=O)[C@@H](C)O` [NAB 740, DA-Thr-DSer-cy[Dab-Dab-DPhe-Leu-Dab-Dab-Thr-]] (Decanoyl-T[dS][Dab][Dab][dF]L[Dab][Dab]T; lactam 3-C) gave an MIC (E. coli CCUG 41421) of 2 µg/mL (≈ 1.81 µM).
For `CCCCCCCC(=O)N[C@H](C(=O)N[C@H](CO)C(=O)N[C@H]1CCNC(=O)[C@H]([C@@H](C)O)NC(=O)[C@H](CCN)NC(=O)[C@H](CCN)NC(=O)[C@H](CC(C)C)NC(=O)[C@@H](Cc2ccccc2)NC(=O)[C@H](CCN)NC1=O)[C@@H](C)O` [NAB 739, OA-Thr-DSer-cy[Dab-Dab-DPhe-Leu-Dab-Dab-Thr-]] (Octanoyl-T[dS][Dab][Dab][dF]L[Dab][Dab]T; lactam 3-C), the “CFU counts from the peritoneum, fold lower than in the saline control group” value (E. coli IH3080; 1 mg/kg s.c. at 1 h and 3 h, 7 h postinfection) was ≥ 10 000 fold, the “CFU counts from the peritoneum, fold lower than in the saline control group” value (E. coli IH3080; 2 mg/kg s.c. at 1 h and 3 h, both 4 h and 7 h postinfection) was ≥ 10 000 fold and the “CFU counts from the peritoneum, fold lower than in the saline control group” value (E. coli IH3080; 4 mg/kg s.c. at 1 h and 3 h, both 4 h and 7 h postinfection) was ≥ 10 000 fold.
